# Laboratory results as given in patent US20180111893A1, “POLYCATIONIC AMPHIPHILES AND POLYMERS THEREOF AS ANTIMICROBIAL AGENTS AND METHODS USING SAME” (Temple University-Of The Commonwealth System of Higher …, priority 2015, published 2018).
# Experiments:
# [1] = test system: Staphylococcus aureus (MSSA) biofilms; assay: Minimum biofilm eradication concentration (MBEC), regrowth assay; format: cell-based; conditions: Table 1
# Experimental: (§1) A regrowth assay was used to establish the MBEC of a compound to evaluate the antibiofilm activity. See also H. Ceri, M. Olson, D. Morck, D. Storey, R. Read, A. Buret, B. Olson, Methods Enzymol. 2001, 337, 377, which is incorporated by reference herein in its entirety.
# (§2) To each well of a flat-bottomed 96-well plate (Corning 3370), 8 μL of overnight bacterial culture was brought to a volume of 200 μL with fresh media (BHI for MSSA and MRSA). Plates were incubated statically for 24 hours at 37° C. to establish biofilms. After 24 hours, the wells were carefully emptied by inverting the plate and gently shaking. A pre-mixed solution of media and compound stock solution was added to each well and plates were incubated at 37° C. 16 hours after pre-established biofilms were treated with compound, the media from each well was removed, biofilms were washed three times with 200 μL PBS to remove planktonic cells, and biofilms were incubated overnight at 37° C. in 200 μL of fresh media to allow any viable cells to continue growing. The wells were then vigorously pipetted to resuspend the biofilm cells and the OD at 595 nm was measured using a plate reader (POLARstar Omega, BMG Labtech). Biofilms reaching a final OD of less than 0.1 were considered eradicated and the lowest concentration of antibiotic corresponded to the MBEC. Four replicates were completed for each concentration of compound as well as positive and negative controls.
# [2] = test system: Enterococcus faecalis biofilms; assay: as above; format: cell-based; conditions: Table 1
# Source text: as §1
# [3] = test system: Staphylococcus aureus (SA; MSSA SH1000); assay: Minimum inhibitory concentration (MIC); format: cell-based
# Experimental: (§3) As used herein, the term “minimum inhibitory concentration (MIC)” refers to the lowest concentration of an antimicrobial agent that will inhibit the visible growth of a microorganism after overnight incubation. MIC values against bacteria, for example, the Gram-positive Staphylococcus aureus and Enterococcus faecalis and the Gram-negative Escherichia coli and Pseudomonas aeruginosa were determined by standard methods. See also P. A. Wayne, Methods for Dilution Antimicrobial Tests for Bacteria that Grow Aerobically; Approved Standard, Ninth Edition, 2012, CLSI Document M07-A9, Vol. 32 No. 2, which is incorporated by reference herein in its entirety.
# (§4) Compounds were serially diluted two-fold from a 10% DMSO/aqueous stock solution to yield twelve test concentrations. Overnight S. aureus, E. faecalis, E. coli, P. aeruginosa, CA-MRSA, and HA-MRSA cultures diluted to ca. 10^6 cfu/mL in Mueller-Hinton media and 100 μL were inoculated into each well of a U-bottom 96-well plate (BD Biosciences, BD351177) containing 100 μL of compound solution. Plates were incubated statically at 37° C. for 72 hours upon which time wells were evaluated visually for bacterial growth. The MIC was determined as the lowest concentration of compound resulting in no bacterial growth visible to the naked eye, based on the majority of three independent experiments. Positive and negative DMSO/aqueous solution and media controls were conducted for each trial. See Peng et al., 2011, Chem. Comm. 47:4896-4898.
# as §4, with “trial.” for “trial. See Peng et al., 2011, Chem. Comm. 47:4896-4898.”
# [4] = test system: Enterococcus faecalis (OG1RF); assay: Minimum inhibitory concentration (MIC); format: cell-based; conditions: for MIC v EF: Table 1
# Experimental: as §3, §4
# as §4, with “trial.” for “trial. See Peng et al., 2011, Chem. Comm. 47:4896-4898.”
# [5] = test system: Escherichia coli (MC4100); assay: Minimum inhibitory concentration (MIC); format: cell-based; conditions: for MIC v EC: Table 1
# Experimental: as §3, §4
# as §4, with “trial.” for “trial. See Peng et al., 2011, Chem. Comm. 47:4896-4898.”
# [6] = test system: Pseudomonas aeruginosa (PAO1); assay: Minimum inhibitory concentration (MIC); format: cell-based; conditions: for MIC v PA: Table 1
# Experimental: as §3, §4
# as §4, with “trial.” for “trial. See Peng et al., 2011, Chem. Comm. 47:4896-4898.”
# Pseudomonas aeruginosa = test system: Pseudomonas aeruginosa; parameters: MIC against Pseudomonas aeruginosa: unit not given here; conditions: cited from earlier work
# [7] = test system: MRSA biofilms (S. aureus USA300-0114); assay: Minimum biofilm eradication concentration (MBEC), regrowth assay; format: cell-based, Staphylococcus aureus; conditions: Table 2; pre-formed MRSA biofilms
# Experimental: as §1, §2
# [8] = test system: six bacteria (SA, HA-MRSA, CA-MRSA, EF, EC, PA); assay: MIC against the panel of bacteria tested; format: cell-based; conditions: for low micromolar activity: all bacteria except for P. aeruginosa; for antimicrobial activity: quinine- and nicotine-derived QACs, in words
# Experimental: as §3
# The complete set of MIC values against six bacteria [Staphylococcus aureus (SA), hospital-acquired methicillin-resistant SA (HA-MRSA), community-acquired methicillin-resistant SA (CA-MRSA), Enterococcus faecalis (EF), Escherichia coli (EC), and Pseudomonas aeruginosa (PA)] is presented in Table 3, wherein multiQACs are grouped with their monoQAC counterparts. The dye-based QACs with greatest inhibition of the complete range of Gram-positive and Gram-negative bacteria featured bis- or tris-quaternization, with the optimal alkyl total ranging from 17-24 carbons. For example, comparison of two biscationic series -LMG-n,1 and LMG-n,n—evaluates the effect of total alkyl chain length in retention of efficacy against the more challenging CA-MRSA and the Gram-negative strains EC and PA.
# as §4
# [9] = test system: community-acquired methicillin-resistant Staphylococcus aureus CA-MRSA (USA300-0114); assay: Minimum inhibitory concentration (MIC); format: cell-based; conditions: for MIC v MRSA: Table 2, qac-bearing MRSA strain USA300-0114
# Experimental: as §3, §4
# as §4, with “trial.” for “trial. See Peng et al., 2011, Chem. Comm. 47:4896-4898.”
# red blood cells = format: cell-based, sheep
# Experimental: To date, synthesized compounds have been evaluated against planktonic bacteria (E. coli, S. aureus, P. aeruginosa, E. facaelis) and bacterial biofilms (E. facaelis, S. aureus, MRSA); new compounds are similarly assessed. All compounds are also evaluated via a hemolysis assay to assess their ability to lyse red blood cells (RBC) (Nagamune et al., 2000, Toxicology in Vitro 14:139-147). The assay is conducted following a known protocol to determine the concentration of compound that causes 20% of RBCs to be lysed. […] All compounds are benchmarked against three commercial antiseptics—benzalkonium chloride, DDAC, and CHX (FIG. 1).
# Hemolysis assays were performed according to a known method (Peng et al., 2011, Chem. Comm. 47:4896-4898). Defibrinated sheep blood was purchased from Hemostat Labs (DSB030). Compounds representative of each class were serially diluted in sterile PBS from stock solutions and incubated with resuspended blood cells. The OD of the final suspensions were measured directly using plate reader. TritonX (1% by volume) served as a positive control (100% lysis marker) and sterile PBS served as a negative control (0% lysis marker).
# [10] = test system: two MRSA strains-USA300-0114 and ATCC33591; assay: MIC against MRSA strains compared to MSSA; format: cell-based, Staphylococcus aureus; conditions: natural product-derived QACs; for susceptibility to QAC/MRSA resistance: MSSA vs MRSA, in words
# Experimental: as §4
# MIC values against Gram-positive Staphylococcus aureus (methicillin-susceptible Staphyloccocus aureus (MSSA) and two MRSA strains-USA300-0114 and ATCC33591) and Enterococcus faecalis and Gram-negative Escherichia coli and P. aeruginosa were determined according to standard, and results appear in Table 4.
# [11] = test system: methicillin-resistant Staphyloccocus aureus (MRSA); conditions: at 350 μm, cited from earlier work
# [12] = test system: hospital-acquired methicillin-resistant Staphylococcus aureus HA-MRSA (ATCC 33591); assay: Minimum inhibitory concentration (MIC); format: cell-based; conditions: Table 6
# Experimental: as §3, §4
# as §4, with “trial.” for “trial. See Peng et al., 2011, Chem. Comm. 47:4896-4898.”
# [13] = Table 2, non-resistant S. aureus strain (SH1000)
molecule,measurement,setting,value
CCCCCCCCCCCC[N+](C)(C)CCCN(C)CCC[N+](C)(C)CCCCCCCCCCCC [12(3)0(3)12],MBEC v SA,[1],37.5 µM
same,MBEC v EF,[2],50 µM
same,MIC v SA,[3]; Table 1,1 µM
same,MIC v EF,[4],2 µM
same,MIC v EC,[5],1 µM
same,MIC v PA,[6],4 µM
CCCCCCCCCCCC[N+](C)(C)CCC[N+](C)(C)CCC[N+](C)(C)CCCCCCCCCCCC [12(3)1(3)12],MBEC v SA,[1],50 µM
same,MBEC v EF,[2],50 µM
same,MIC v SA,[3]; Table 1,1 µM
same,MIC v EF,[4],2 µM
same,MIC v EC,[5],2 µM
same,MIC v PA,[6],8 µM
"COc1ccc2cc3[n+](cc2c1OC)CCc1cc2c(cc1-3)OCO2 [Berberine, berberine]",activity against P. aeruginosa,"Pseudomonas aeruginosa; in words, literature",micromolar activity
"CCCCCCCCCCCC[N+](C)(C)CCN(C)CCN(C)CC[N+](C)(C)CCCCCCCCCCCC [N4-12,0,0,12]",MBEC v SA,[1],50 µM
same,MBEC v EF,[2],75 µM
same,MIC v SA,[3]; Table 1,1 µM
same,MIC v EF,[4],1 µM
same,MIC v EC,[5],1 µM
same,MIC v PA,[6],2 µM
"C=CC[N+](C)(CC[N+](C)(C)CCCCCCCCCCCC)CC[N+](C)(CC=C)CC[N+](C)(C)CCCCCCCCCCCC (centres unmarked) [N4-12,allyl,allyl,12]",MIC v SA,[3]; [13],1 µM
same,MBEC v MRSA,[7],150 µM
same,MIC,"[8]; FIG. 4 legend, range of MIC values",1 to 2 µM
same,MIC v MRSA,[9],1 µM
same,Lysis20,red blood cells,8 µM
same,TI MRSA,red blood cells,8
same,TI SA,red blood cells,8
"CCCCCCCCCCCCCCCC[n+]1cccc([C@@H]2CCCN2C)c1.[Br-] [N-16,0]",low micromolar activity,[8],4 µM
"CCCCCCCCCCCCCCCCCC[n+]1cccc([C@@H]2CCC[N+]2(C)C)c1.[Br-].[I-] [N-18,1]",low micromolar activity,[8],4 µM
"CCCCCCCCCCC[n+]1ccc(-c2cc[n+](CCCCCCCCCCC)cc2)cc1 [PQ-11,11]",MBEC v SA,[1],50 µM
same,MBEC v EF,[2],50 µM
same,MIC v SA,[3]; Table 1,1 µM
same,MIC v EF,[4],1 µM
same,MIC v EC,[5],1 µM
same,MIC v PA,[6],4 µM
"C=CC1C[N+]2(C)CCC1C[C@H]2[C@@H](O)c1cc[n+](C)c2ccc(OC)cc12 (some centres unmarked) [Q-1,1]",antimicrobial activity,[8],essentially no antimicrobial activity
"C=CC1C[N+]2(CCCCCCCCCCCCCC)CCC1C[C@H]2[C@@H](O)c1ccnc2ccc(OC)cc12.[Br-] (some centres unmarked) [Q-14,0]",antimicrobial activity,[8],strongest activity
"C=CC1C[N+]2(CCCCCCCCCCCCCCCC)CCC1C[C@H]2[C@@H](O)c1cc[n+](C)c2ccc(OC)cc12.[Br-].[I-] (some centres unmarked) [Q-16,1]",antimicrobial activity,[8],single-digit micromolar activity
same,susceptibility to QAC/MRSA resistance,[10],unaffected by QAC resistance
"C=CC1C[N+]2(CCCCCCCCCCCCCCCCCC)CCC1C[C@H]2[C@@H](O)c1ccnc2ccc(OC)cc12.[Br-] (some centres unmarked) [Q-18,0]",increase in MIC of MRSA as compared to MSSA,[10],32 fold
"C=CC1C[N+]2(CCCCCCCCCCCCCCCCCC)CCC1C[C@H]2[C@@H](O)c1cc[n+](C)c2ccc(OC)cc12.[Br-].[I-] (some centres unmarked) [Q-18,1]",antimicrobial activity,[8],single-digit micromolar activity
same,susceptibility to QAC/MRSA resistance,[10],unaffected by QAC resistance
"COc1cc2c(cc1O)[C@@H](Cc1ccc(O)cc1)[N+](C)(C)CC2 [magnocuraine, magnocurarine]",effectiveness against MRSA,[11]; in words,no effectiveness
Latifolian A,MIC against Pseudomonas aeruginosa,"Pseudomonas aeruginosa; Martin et al., 2011",35
same,inhibition of MRSA,[11],55%
benzalkonium chloride [reference compound],MBEC v SA,[1],200 µM
same,MBEC v EF,[2],200 µM
same,MIC v SA,[3]; Table 1,8 µM
same,MIC v SA,[3]; [13],8 µM
same,MIC SA,[3]; Table 6,8 µM
same,MIC HA-MRSA,[12],32 µM
same,MIC v EF,[4],8 µM
same,MIC EF,[4]; Table 6,8 µM
same,MIC v EC,[5],32 µM
same,MIC EC,[5]; Table 6,32 µM
same,MIC v PA,[6],63 µM
same,MIC PA,[6]; Table 6,63 µM
same,MBEC v MRSA,[7],>200 µM
same,MIC v MRSA,[9],32 µM
same,MIC CA-MRSA,[9]; Table 6,8 µM
same,Lysis20,red blood cells,63 µM
same,TI MRSA,red blood cells,2
same,TI SA,red blood cells,8
